{
  "source": "ChEMBL document CHEMBL5724696",
  "about": "“Autophagy assay results for EUbOPEN Chemogenomics Library” (2024)",
  "type_in_all_cases": "functional, Homo sapiens",
  "key": {"U2OS [1]": {"tested_on": "U2OS", "experiment": "(§1) Here: values are normalized to the negative (DMSO; defined as 0% autophagy induction) and positive (250nM Torin1; mTOR inhibitor; defined as maximal inducer of autophagy = 100%) control compounds and represented as % of autophagy induction. […] The impact of autophagy induction on cells is complex and depends on the affected target. As such, the magnitude of a phenotype may not be equally mirrored in the %-value of autophagy induction and vice versa. The dynamics of the induction may indicate the mode of activation: e.g. activation via phosphorylation or a signaling cascade may occur fast, while activation via transcription factors may take considerably longer. […] Of note, treatment concentrations may be sub-optimal for specific compounds, leading to false negative annotations.", "conditions": "Culturing Media DMEM, 1 % Penicillin/Streptomycin, 10% Fetal bovin serum Add-On: No, Screening Media Control DMEM, Screening Media Samples DMEM"}, "TERT-RPE1": {"tested_on": "TERT-RPE1", "experiment": "as §1", "conditions": "Culturing Media DMEM/F12 (1:1), 1 % Penicillin/Streptomycin, 10% Fetal bovin serum Add-On: No, Screening Media Control DMEM/F12 (1:1), Screening Media Samples DMEM/F12 (1:1)"}, "U2OS [2]": {"tested_on": "U2OS", "experiment": "as §1", "conditions": "Culturing Media DMEM, 1 % Penicillin/Streptomycin, 10% Fetal bovin serum Add-On: No, Screening Media Control DMEM, Screening Media Samples DMEM", "remark": "listed apart in the source"}, "[3]": {"conditions": "Compound Concentration 0.5 uM, Timepoint 12 hours"}, "[4]": {"conditions": "Compound Concentration 0.5 uM, Timepoint 24 hours"}, "[5]": {"conditions": "Compound Concentration 0.5 uM, Timepoint 36 hours"}, "[6]": {"conditions": "Compound Concentration 0.5 uM, Timepoint 60 hours"}, "[7]": {"conditions": "Compound Concentration 2 uM, Timepoint 12 hours"}, "[8]": {"conditions": "Compound Concentration 2 uM, Timepoint 24 hours"}, "[9]": {"conditions": "Compound Concentration 2 uM, Timepoint 36 hours"}, "[10]": {"conditions": "Compound Concentration 2 uM, Timepoint 60 hours"}, "[11]": {"conditions": "Compound Concentration 10 uM, Timepoint 12 hours"}, "[12]": {"conditions": "Compound Concentration 10 uM, Timepoint 24 hours"}, "[13]": {"conditions": "Compound Concentration 10 uM, Timepoint 36 hours"}, "[14]": {"conditions": "Compound Concentration 10 uM, Timepoint 60 hours"}},
  "note": "Where “and” joins values, the source holds several entries; their conditions need not be identical. Identical values can stand only once.",
  "data": [
    {"smiles": "Cc1c(F)cccc1NC(=O)Nc1ccc(Cl)c(S(=O)(=O)[C@H]2CCCNC2)c1O", "note": "[DANIRIXIN]", "values": [
      {"measurement": "autophagy induction", "setting": "U2OS [1]; [3]", "value": -10.8402, "unit": "%"},
      {"measurement": "autophagy induction", "setting": "U2OS [1]; [4]", "value": -17.1359, "unit": "%"},
      {"measurement": "autophagy induction", "setting": "U2OS [1]; [5]", "value": -12.7926, "unit": "%"},
      {"measurement": "autophagy induction", "setting": "U2OS [1]; [6]", "value": -5.9905, "unit": "%"},
      {"measurement": "autophagy induction", "setting": "U2OS [1]; [7]", "value": -6.206, "unit": "%"},
      {"measurement": "autophagy induction", "setting": "U2OS [1]; [8]", "value": -10.5833, "unit": "%"},
      {"measurement": "autophagy induction", "setting": "U2OS [1]; [9]", "value": -10.8283, "unit": "%"},
      {"measurement": "autophagy induction", "setting": "U2OS [1]; [10]", "value": -13.8786, "unit": "%"},
      {"measurement": "autophagy induction", "setting": "U2OS [1]; [11]", "value": -11.164, "unit": "%"},
      {"measurement": "autophagy induction", "setting": "U2OS [1]; [12]", "value": -5.925, "unit": "%"},
      {"measurement": "autophagy induction", "setting": "U2OS [1]; [13]", "value": -8.152, "unit": "%"},
      {"measurement": "autophagy induction", "setting": "U2OS [1]; [14]", "value": -8.851, "unit": "%"},
      {"measurement": "autophagy induction", "setting": "TERT-RPE1; Compound Concentration 0.5 uM, Timepoint 12 hours, 12 h, 0.5 µM", "value": "-1.988% and 1.2715%"},
      {"measurement": "autophagy induction", "setting": "TERT-RPE1; Compound Concentration 0.5 uM, Timepoint 24 hours, 24 h, 0.5 µM", "value": "-2.9066% and -1.048%"},
      {"measurement": "autophagy induction", "setting": "TERT-RPE1; Compound Concentration 0.5 uM, Timepoint 36 hours, 36 h, 0.5 µM", "value": "-6.399% and -2.355%"},
      {"measurement": "autophagy induction", "setting": "TERT-RPE1; Compound Concentration 0.5 uM, Timepoint 60 hours, 60 h, 0.5 µM", "value": "-5.802% and -6.526%"},
      {"measurement": "autophagy induction", "setting": "TERT-RPE1; Compound Concentration 2 uM, Timepoint 12 hours, 12 h, 2 µM", "value": "-2.5% and 0.287%"},
      {"measurement": "autophagy induction", "setting": "TERT-RPE1; Compound Concentration 2 uM, Timepoint 24 hours, 24 h, 2 µM", "value": "-3.213% and -0.8718%"},
      {"measurement": "autophagy induction", "setting": "TERT-RPE1; Compound Concentration 2 uM, Timepoint 36 hours, 36 h, 2 µM", "value": "-5.9285% and 0.3135%"},
      {"measurement": "autophagy induction", "setting": "TERT-RPE1; Compound Concentration 2 uM, Timepoint 60 hours, 60 h, 2 µM", "value": "-6.839% and -1.623%"},
      {"measurement": "autophagy induction", "setting": "TERT-RPE1; Compound Concentration 10 uM, Timepoint 12 hours, 12 h, 10 µM", "value": "1.595% and 0.8887%"},
      {"measurement": "autophagy induction", "setting": "TERT-RPE1; Compound Concentration 10 uM, Timepoint 24 hours, 24 h, 10 µM", "value": "3.736% and 2.2115%"},
      {"measurement": "autophagy induction", "setting": "TERT-RPE1; Compound Concentration 10 uM, Timepoint 36 hours, 36 h, 10 µM", "value": "4.117% and 5.758%"},
      {"measurement": "autophagy induction", "setting": "TERT-RPE1; Compound Concentration 10 uM, Timepoint 60 hours, 60 h, 10 µM", "value": "6.176% and 5.1403%"},
      {"measurement": "autophagy induction", "setting": "U2OS [2]; [3]", "value": 3.972, "unit": "%"},
      {"measurement": "autophagy induction", "setting": "U2OS [2]; [4]", "value": -2.873, "unit": "%"},
      {"measurement": "autophagy induction", "setting": "U2OS [2]; [5]", "value": -59.8201, "unit": "%"},
      {"measurement": "autophagy induction", "setting": "U2OS [2]; [6]", "value": -1.181, "unit": "%"},
      {"measurement": "autophagy induction", "setting": "U2OS [2]; [7]", "value": -1.664, "unit": "%"},
      {"measurement": "autophagy induction", "setting": "U2OS [2]; [8]", "value": -3.195, "unit": "%"},
      {"measurement": "autophagy induction", "setting": "U2OS [2]; [9]", "value": -60.7356, "unit": "%"},
      {"measurement": "autophagy induction", "setting": "U2OS [2]; [10]", "value": -1.731, "unit": "%"},
      {"measurement": "autophagy induction", "setting": "U2OS [2]; [11]", "value": -5.705, "unit": "%"},
      {"measurement": "autophagy induction", "setting": "U2OS [2]; [12]", "value": -2.005, "unit": "%"},
      {"measurement": "autophagy induction", "setting": "U2OS [2]; [13]", "value": -60.1624, "unit": "%"},
      {"measurement": "autophagy induction", "setting": "U2OS [2]; [14]", "value": -1.218, "unit": "%"}
    ]},
    {"smiles": "C[C@H](Cc1cc2c(c(C(N)=O)c1)N(CCCO)CC2)NCCOc1ccccc1OCC(F)(F)F", "note": "[SILODOSIN]", "values": [
      {"measurement": "autophagy induction", "setting": "U2OS [1]; [3]", "value": 8.749, "unit": "%"},
      {"measurement": "autophagy induction", "setting": "U2OS [1]; [4]", "value": -4.272, "unit": "%"},
      {"measurement": "autophagy induction", "setting": "U2OS [1]; [5]", "value": -5.327, "unit": "%"},
      {"measurement": "autophagy induction", "setting": "U2OS [1]; [6]", "value": -13.2389, "unit": "%"},
      {"measurement": "autophagy induction", "setting": "U2OS [1]; [7]", "value": -4.216, "unit": "%"},
      {"measurement": "autophagy induction", "setting": "U2OS [1]; [8]", "value": 0.5128, "unit": "%"},
      {"measurement": "autophagy induction", "setting": "U2OS [1]; [9]", "value": -1.271, "unit": "%"},
      {"measurement": "autophagy induction", "setting": "U2OS [1]; [10]", "value": -7.276, "unit": "%"},
      {"measurement": "autophagy induction", "setting": "U2OS [1]; [11]", "value": 1.6, "unit": "%"},
      {"measurement": "autophagy induction", "setting": "U2OS [1]; [12]", "value": 6.633, "unit": "%"},
      {"measurement": "autophagy induction", "setting": "U2OS [1]; [13]", "value": 3.208, "unit": "%"},
      {"measurement": "autophagy induction", "setting": "U2OS [1]; [14]", "value": 0.1621, "unit": "%"},
      {"measurement": "autophagy induction", "setting": "TERT-RPE1; [3]", "value": -3.093, "unit": "%"},
      {"measurement": "autophagy induction", "setting": "TERT-RPE1; [4]", "value": -6.268, "unit": "%"},
      {"measurement": "autophagy induction", "setting": "TERT-RPE1; [5]", "value": -8.97, "unit": "%"},
      {"measurement": "autophagy induction", "setting": "TERT-RPE1; [6]", "value": -13.239, "unit": "%"},
      {"measurement": "autophagy induction", "setting": "TERT-RPE1; [7]", "value": -3.63, "unit": "%"},
      {"measurement": "autophagy induction", "setting": "TERT-RPE1; [8]", "value": -5.97, "unit": "%"},
      {"measurement": "autophagy induction", "setting": "TERT-RPE1; [9]", "value": -7.85, "unit": "%"},
      {"measurement": "autophagy induction", "setting": "TERT-RPE1; [10]", "value": -11.8179, "unit": "%"},
      {"measurement": "autophagy induction", "setting": "TERT-RPE1; [11]", "value": -0.1283, "unit": "%"},
      {"measurement": "autophagy induction", "setting": "TERT-RPE1; [12]", "value": -0.9694, "unit": "%"},
      {"measurement": "autophagy induction", "setting": "TERT-RPE1; [13]", "value": 1.604, "unit": "%"},
      {"measurement": "autophagy induction", "setting": "TERT-RPE1; [14]", "value": -1.313, "unit": "%"},
      {"measurement": "autophagy induction", "setting": "U2OS [2]; [3]", "value": -11.9601, "unit": "%"},
      {"measurement": "autophagy induction", "setting": "U2OS [2]; [4]", "value": -4.037, "unit": "%"},
      {"measurement": "autophagy induction", "setting": "U2OS [2]; [5]", "value": -2.198, "unit": "%"},
      {"measurement": "autophagy induction", "setting": "U2OS [2]; [6]", "value": -1.72, "unit": "%"},
      {"measurement": "autophagy induction", "setting": "U2OS [2]; [7]", "value": -7.096, "unit": "%"},
      {"measurement": "autophagy induction", "setting": "U2OS [2]; [8]", "value": -4.088, "unit": "%"},
      {"measurement": "autophagy induction", "setting": "U2OS [2]; [9]", "value": -2.301, "unit": "%"},
      {"measurement": "autophagy induction", "setting": "U2OS [2]; [10]", "value": -1.816, "unit": "%"},
      {"measurement": "autophagy induction", "setting": "U2OS [2]; [11]", "value": 0.9061, "unit": "%"},
      {"measurement": "autophagy induction", "setting": "U2OS [2]; [12]", "value": 0.8821, "unit": "%"},
      {"measurement": "autophagy induction", "setting": "U2OS [2]; [13]", "value": -0.4631, "unit": "%"},
      {"measurement": "autophagy induction", "setting": "U2OS [2]; [14]", "value": -2.909, "unit": "%"}
    ]}
  ]
}
